Results from patent publication US9815839B2, “N-(1-(substituted-phenyl)ethyl)-9H-purin-6-amines as PI3K inhibitors” (Incyte Corporation, priority 2010, dated 2017).

Experiments:
[1] = target: T1, PI3Kδ (p110δ/p85α) (Homo sapiens, UniProt O00329); assay: PI3Kδ scintillation proximity assay; assay type: biochemical; details: 20 μM ATP, 4 nM PI3Kδ
T1 construct: purchased Millipore (Bedford, Mass.)
In short: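 Radiometric SPA: product captured on WGA beads after EDTA quench and counted, IC50 fitted against log inhibitor concentration. Reactions ran 210 min at room temperature with 4 nM PI3Kδ (p110δ/p85α), 20 μM each PIP2 and ATP plus 33P-ATP, pH 6.7 MOPS buffer, 0.5% DMSO final.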

[2] = tested on: Pfeiffer cell line (diffuse large B cell lymphoma); assay: Pfeiffer cell proliferation assay; assay type: cell-based; details: Homo sapiens, Pfeiffer, Pfeiffer cells, 3-4 days plus 12 hours [3H]-thymidine incorporation
Procedure: Example C: Pfeiffer Cell Proliferation Assay
Pfeiffer cell line (diffuse large B cell lymphoma) was purchased from ATCC (Manassas, Va.) and maintained in the culture medium recommended (RPMI and 10% FBS). To measure the anti-proliferation activity of the compounds, the Pfeiffer cells were plated with the culture medium (2×10^3 cells/well/per 200 μl) into 96-well ultra-low binding plates (Corning, Corning, N.Y.), in the presence or absence of a concentration range of test compounds. After 3-4 days, [^3H]-thymidine (1 μCi/well) (PerkinElmer, Boston, Mass.) in PBS was then added to the cell culture for an additional 12 hours before the incorporated radioactivity was separated by filtration with water through GF/B filters (Packard Bioscience, Meridenj, Conn.) and measured by liquid scintillation counting with a TopCount (Packard Bioscience).

T1 sequence (O00329 whole entry, species assumed): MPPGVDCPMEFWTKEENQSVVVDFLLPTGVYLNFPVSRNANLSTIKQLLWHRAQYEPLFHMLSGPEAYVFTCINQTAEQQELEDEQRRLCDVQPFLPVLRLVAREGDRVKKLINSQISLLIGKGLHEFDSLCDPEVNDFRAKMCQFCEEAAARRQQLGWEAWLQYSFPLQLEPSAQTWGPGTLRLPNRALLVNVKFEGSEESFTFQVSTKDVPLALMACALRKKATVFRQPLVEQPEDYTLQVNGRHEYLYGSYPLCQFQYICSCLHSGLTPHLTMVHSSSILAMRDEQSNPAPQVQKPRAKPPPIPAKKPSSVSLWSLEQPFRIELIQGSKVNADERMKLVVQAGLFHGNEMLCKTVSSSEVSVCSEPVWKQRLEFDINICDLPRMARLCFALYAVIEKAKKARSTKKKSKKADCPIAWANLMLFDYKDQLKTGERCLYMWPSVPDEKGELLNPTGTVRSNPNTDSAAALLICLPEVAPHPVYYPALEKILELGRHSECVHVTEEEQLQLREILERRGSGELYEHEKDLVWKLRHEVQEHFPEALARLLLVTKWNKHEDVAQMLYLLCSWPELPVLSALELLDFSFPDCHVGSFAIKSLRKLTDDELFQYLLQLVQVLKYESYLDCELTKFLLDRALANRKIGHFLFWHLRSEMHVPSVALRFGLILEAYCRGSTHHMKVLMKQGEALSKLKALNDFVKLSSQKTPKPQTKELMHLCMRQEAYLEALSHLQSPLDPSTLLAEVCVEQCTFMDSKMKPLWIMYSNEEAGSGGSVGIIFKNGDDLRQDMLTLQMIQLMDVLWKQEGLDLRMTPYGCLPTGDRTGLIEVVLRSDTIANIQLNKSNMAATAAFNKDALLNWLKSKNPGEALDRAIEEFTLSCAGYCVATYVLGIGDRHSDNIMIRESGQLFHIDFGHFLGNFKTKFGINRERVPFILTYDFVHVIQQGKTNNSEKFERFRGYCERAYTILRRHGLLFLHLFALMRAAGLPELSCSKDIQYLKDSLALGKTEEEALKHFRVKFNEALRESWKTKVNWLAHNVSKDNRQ
T1 sequence (P27986 whole entry partner, species assumed): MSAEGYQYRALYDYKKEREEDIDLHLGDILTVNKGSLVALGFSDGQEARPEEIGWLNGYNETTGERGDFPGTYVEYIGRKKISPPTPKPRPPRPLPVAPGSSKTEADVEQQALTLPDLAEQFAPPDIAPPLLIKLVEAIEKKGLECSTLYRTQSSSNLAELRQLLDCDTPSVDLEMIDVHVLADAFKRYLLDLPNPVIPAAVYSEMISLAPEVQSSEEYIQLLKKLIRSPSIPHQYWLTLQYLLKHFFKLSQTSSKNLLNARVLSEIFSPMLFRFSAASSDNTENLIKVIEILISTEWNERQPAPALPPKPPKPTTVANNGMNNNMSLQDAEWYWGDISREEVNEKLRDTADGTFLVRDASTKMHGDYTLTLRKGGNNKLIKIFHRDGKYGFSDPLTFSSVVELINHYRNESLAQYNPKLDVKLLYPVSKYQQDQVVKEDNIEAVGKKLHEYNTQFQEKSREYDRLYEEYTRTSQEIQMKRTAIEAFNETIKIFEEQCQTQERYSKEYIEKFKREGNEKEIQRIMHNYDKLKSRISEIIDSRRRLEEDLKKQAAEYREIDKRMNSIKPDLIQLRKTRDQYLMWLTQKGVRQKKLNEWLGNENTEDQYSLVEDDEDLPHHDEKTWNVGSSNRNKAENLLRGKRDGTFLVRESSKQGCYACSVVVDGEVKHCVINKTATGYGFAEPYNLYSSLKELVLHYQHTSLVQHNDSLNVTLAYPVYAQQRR

IC50 [1]	IC50 [2]	Compound
< 50 nM	< 100 nM	COc1c(C(C)Nc2ncnc3[nH]cnc23)cc(Cl)c(C)c1-c1ccc(N2CCOCC2)cc1 (centres unmarked) [Example 88, N-[1-(5-chloro-2-methoxy-6-methyl-4′-morpholin-4-ylbiphenyl-3-yl)ethyl]-9H-purin-6-amine]
< 50 nM	> 1000 nM	Cc1c(Cl)cc(C(C)Nc2ncnc3[nH]cnc23)c(-c2cccc(F)c2)c1-c1nnn[nH]1 (centres unmarked) [Example 8, N-{1-[4-chloro-3′-fluoro-5-methyl-6-(1H-tetrazol-5-yl)biphenyl-2-yl]ethyl}-9H-purin-6-amine]
< 50 nM	< 100 nM	Cc1c(Cl)cc(C(C)Nc2ncnc3[nH]cnc23)c(-c2cccc(F)c2)c1N1CCCC1=O (centres unmarked) [Example 5, 1-{4-Chloro-3′-fluoro-3-methyl-6-[1-(9H-purin-6-ylamino)ethyl]biphenyl-2-yl}pyrrolidin-2-one]
< 50 nM	< 100 nM	Cc1c(Cl)cc(C(C)Nc2ncnc3[nH]cnc23)c(-c2cccc(F)c2)c1C(N)=O (centres unmarked) [Example 2, 4-Chloro-3′-fluoro-3-methyl-6-[1-(9H-purin-6-ylamino)ethyl]biphenyl-2-carboxamide]
< 50 nM	100 to 500 nM	COc1c(C(C)Nc2ncnc3[nH]cnc23)cc(Cl)c(C)c1-c1ccc(OC2CCOCC2)nc1 (centres unmarked) [Example 45, N-(1-{5-chloro-2-methoxy-4-methyl-3-[6-(tetrahydro-2H-pyran-4-yloxy)pyridin-3-yl]phenyl}ethyl)-9H-purin-6-amine]
< 50 nM	< 100 nM	COc1c(C(C)Nc2ncnc3[nH]cnc23)cc(Cl)c(C)c1-c1cccc(C#N)c1 (centres unmarked) [Example 40, 3′-chloro-6′-methoxy-2′-methyl-5′-[1-(9H-purin-6-ylamino)ethyl]biphenyl-3-carbonitrile]
< 50 nM	> 1000 nM	COc1c(C(C)Nc2ncnc3[nH]cnc23)cc(Cl)c(C)c1-c1ccc(CC#N)cc1 (centres unmarked) [Example 41, {3′-chloro-6′-methoxy-2′-methyl-5′-[1-(9H-purin-6-ylamino)ethyl]biphenyl-4-yl}acetonitril]
< 50 nM	< 100 nM	COc1ccc(-c2c(C)c(Cl)cc(C(C)Nc3ncnc4[nH]cnc34)c2OC)cc1OC (centres unmarked) [Example 96, N-[1-(5-chloro-2,3′,4′-trimethoxy-6-methylbiphenyl-3-yl)ethyl]-9H-purin-6-amine]
< 50 nM	< 100 nM	CC(=O)Nc1ccc(-c2c(C)c(Cl)cc(C(C)Nc3ncnc4[nH]cnc34)c2-c2ccccc2)cc1 (centres unmarked) [Example 26, N-{5′-chloro-6′-methyl-3′-[1-(9H-purin-6-ylamino)ethyl]-1,1′:2′,1″-terphenyl-4-yl}acetamide]
< 50 nM	< 100 nM	COc1c(C(C)Nc2ncnc3[nH]cnc23)cc(Cl)c(Cl)c1C1CN(CC2CC2)C1 (centres unmarked) [Example 201, N-(1-{4,5-Dichloro-3-[1-(cyclopropylmethyl)azetidin-3-yl]-2-methoxyphenyl}ethyl)-9H-purin-6-amine]
50 to 100 nM	100 to 500 nM	CC(=O)Nc1c(C)c(Cl)cc(C(C)Nc2ncnc3[nH]cnc23)c1-c1cccc(F)c1 (centres unmarked) [Example 9, N-{4-chloro-3′-fluoro-3-methyl-6-[1-(9H-purin-6-ylamino)ethyl]biphenyl-2-yl}acetamide]
< 50 nM	100 to 500 nM	COc1c(C(C)Nc2ncnc3[nH]cnc23)cc(Cl)c(C)c1-c1cc(F)cc(F)c1 (centres unmarked) [Example 29, N-[1-(5-chloro-3′,5′-difluoro-2-methoxy-6-methylbiphenyl-3-yl)ethyl]-9H-purin-6-amine]
< 50 nM	< 100 nM	COc1c(C(C)Nc2ncnc3[nH]cnc23)cc(Cl)c(C)c1C1CCN(C)CC1 (centres unmarked) [Example 176, N-{1-[5-Chloro-2-methoxy-4-methyl-3-(1-methylpiperidin-4-yl)phenyl]ethyl}-9H-purin-6-amine]
